The test system of one series is A549. The series is described as follows: 2D cell proliferation assay (Alamar Blue), A549. Format: cell-based, human. The conditions noted are these: Homo sapiens; 2D, A549, 72 h; read-out: IC50. An excerpt:
(§1) Nsl-8 was subjected to 2D cell proliferation assays using four NSCLC cell lines (A549 (human adenocarcinomic alveolar basal epithelial cells with k-ras gene mutation), H1299 (human non-small cell lung carcinoma cell line with p53 mutation), H460 (human non-small cell lung carcinoma cell line with k-ras gene mutation), and HCC827 (human NSCLC cells with EGFR mutation of deletion from E746 to A750)) and the results were presented in Table 2. There were eight concentrations used for each drug for determining its IC50. […]. Actinomycin D was a chemotherapeutic drug simply used as a quality control for all the experiments.
(§2) In the 2D cell proliferation assay, cells were cultured in DMEM containing 10% FCS and Penicillin/Streptomycin. For the assays, cells were seeded in 150 μL medium on a 96-well cell culture plate and incubated at 37° C. overnight before the compounds were added. Compounds were prepared as predilution which was 16 fold concentrated to the final assay concentration. A day after cell seeding, 10 μL of prediluted compounds was added to the cells (1:16 dilution). Treatment of cells with 0.1% DMSO or 1% DMSO (for the two top concentrations of nsl-8) and 1.0E-05 M Staurosporine was served as high control (100% viability) and low control (0% viability), respectively. Measurement of the impact of compounds on cell viability was performed as follows: 5000 cells (A549 and HCC827) or 2500 cells (H1299 and H460) were seeded in the inner wells of 96-well-plates in 150 μL complete medium. Next day, compounds were added to the medium to reach the final concentration and then incubated at 37° C. in 5% or 10% CO2 depending on the medium for 72 h. Subsequently 10 μL Alamar Blue reagent was added and fluorescence at 590 nm was measured after 5 h incubation at 37° C. in 5% CO2 using a fluorometer.
(§3) Raw data were converted into percent cell viability relative to high control (solvent 0.1% DMSO or 1% DMSO for the two top concentrations of drug nsl-8) and low control (1.0E-05 M Staurosporine), which were set to 100% and 0%, respectively.
(In general: The colour change of resazurin is a common sign of viable cells or microbes.)

The next series has as its system H1299. As to the kind of experiment: 2D cell proliferation assay (Alamar Blue), H1299. The conditions noted are these: Homo sapiens, NCI-H1299; 2D, H1299, 72 h; read-out: IC50. Format: cell-based, human.
Text: as §1, §2, §3

For another series, the system named is H460. The series is described as follows: 2D cell proliferation assay (Alamar Blue), H460. The format is cell-based, human. Conditions: Homo sapiens, NCI-H460; 2D, H460, 72 h; read-out: IC50.
Text: as §1, §2, §3

Series [1] concerns four NSCLC cell lines (A549, H1299, H460, HCC827). The series is described as follows: 2D cell proliferation assay, summary over the NSCLC cell lines. The format is cell-based. The conditions noted are these: Homo sapiens, span over the four NSCLC cell lines. As for the experimental part: There were eight concentrations used for each drug for determining its IC50. […] Actinomycin D was a chemotherapeutic drug simply used as a quality control for all the experiments.
as §2, with “Compounds were prepared as predilution which was 16 fold concentrated to the final assay concentration.” left out, “h.” for “h. Subsequently 10 μL Alamar Blue reagent was added and fluorescence at 590 nm was measured after 5 h incubation at 37° C. in 5% CO2 using a fluorometer.”
as §3

In the next series the test system is HCC827. The series is described as follows: 3D cell proliferation assay (soft agar), HCC827. The format is cell-based, human. The conditions noted are these: Homo sapiens, 3D soft agar. As for the experimental part:
(§4) Drug nsl-8 was further subjected to a 3D cell proliferation assay for assessing its potential in inhibiting the growth of NSCLC tumors. The same four NSCLC cell lines used in 2D proliferation assays were grown in soft agar and the drug was added after the agar has solidified. The drug added cells were then incubated several days until colonies have formed in the solvent control. Subsequently, Alamar Blue which was a cell viability reagent was added and the corresponding fluorescence released was measured as an indirect quantification of colony growth in soft agar.
(§5) For each cell line, some 96 well culture plates were prepared. 100 μL of the soft agar bottom layer (0.6% final concentration in complete medium) was poured and left to solidify. 50 μL of the soft agar top layer (0.4% final concentration) containing the corresponding cells and cell number were then added on top, solidified and such 96 well plates were incubated overnight at 37° C. in 10% CO2. Next day, drugs were added at indicated final concentrations into the inner wells of the plate. Subsequently, the assays were incubated in cell culture incubators for the indicated period of time. Finally, the assays were developed using Alamar Blue and upon 3-5 h of incubation at 37 ° C. fluorescence intensity was determined (excitation: 560 nm, emission: 590 nm). […]

The test system of series [2] is four NSCLC cell lines (A549, H1299, H460, HCC827). The series is described as follows: 3D cell proliferation assay, summary over the NSCLC cell lines. The format is cell-based. The conditions noted are these: Homo sapiens, span over the four NSCLC cell lines. The protocol: as §4, §5
Another series deals with A549 implanted tumors. The series is described as follows: Subcutaneous A549 xenograft model, groups 1a/1b, i.p. Conditions: 40 mg/kg i.p. once daily, after treatment days 48-52. The format is in vivo, BALB/c nude mice. The protocol:
All experiments were performed using either 5-6 weeks old female BALB/c nude mice (approximate weight: 16-20 g) (A549) or female SCID mice (approximate weight: 16-20 g) (A549 and HCC827). […] Animal behaviour was monitored daily.
At necropsy, animals were killed by cervical dislocation. Primary tumor weights and volumes were determined.
The treatment for groups 1a and 1b (A549 model) animals with drug nsl-8 was started on day 48 and terminated on day 69. The animals were not consecutively treated with nsl-8 during the entire treatment period of 48-68 days. Instead, there was an interruption between treatment days 48-52 and 62-66 (FIG. 4) due to an apparent weight loss observed in the treated animals, an ethical reason which caused the treatment to be suspended. […] However, the animals were able to recover from such a weight loss after several days of cessation of treatment (FIG. 5). After weight loss of treated animals was recovered, a second treatment cycle from days 62-66 was resumed (FIG. 5). This second treatment cycle caused weight loss again (FIG. 5). However, the study groups 1a and 1b were both terminated on day 69 due to the presence of tumor ulceration in some animals. Note that weight loss in animals treated with vehicle was also observed in the final stage of treatment (FIG. 5). We speculated that such a loss might be caused by the presence of 10% DMSO in the prepared vehicle. […]

As a reminder, the IC50 is the concentration needed to halve the response being measured. In the case of `COc1ccc(-c2ccc3cc(C(=O)O)ccc3c2)cc1C12CC3CC(CC(C3)C1)C2` [nsl-8, 6-[3-(1-adamantyl)-4-methoxyphenyl]-2-naphthalenecarboxylic acid], the IC50 is 5.4 µM with A549; 6.5 µM with H1299; 2 µM in the series with H460; 2 to 11 µM in series [1]; 7.2 µM in the series with HCC827; 0.99 to 13 µM in series [2]. For the same molecule, the “weight loss in animals” value in the series on A549 implanted tumors is reported as 16%.
